Laboratory results as given in patent US7776572B2, “Method for reducing loss of enzyme activity during storage” (Corning Incorporated, priority 1996, dated 2010).
Like-named read-outs stand apart in the source and are kept apart here.

How the values were obtained:
[1] = system: rat; settings: cited from earlier work
[2] = system: IgG; experiment: Protein binding to coated 0.45 micron PVDF membranes, Au stain; settings: coated two times by immersion, 0.1% in isopropanol; IgG 10 μg/ml
Description: The experiments were performed using 0.45 micron PVDF membranes. The membranes were coated two times by immersion using 0.1% (weight/volume) of the following non-ionic surfactants in isopropanol: sorbitol mono-oleate, Pluronic® L-121, Pluronic® L-122, and Pluronic® L-123. The membrane was dried at room temperature after each of the two immersion coatings. The coated membranes were incubated with IgG 10 μg/ml in 0.1M PBS (pH 7.4) for 30 minutes at room temperature on an orbital shaker. The membranes were then rinsed three times with water in a clean plate, each rinse being performed for 5 minutes on the shaker. Thereafter, the membranes were stained with Au overnight, again on the shaker. An uncoated PVDF membrane was used as a control.

[3] = system: IgG protein; experiment: In-mold coating of 24-well polystyrene plates, protein binding by colloidal gold staining
Description: The in-mold coating aspects of the invention were tested by molding 24-well polystyrene plates. […] The 0.01% concentration was estimated to produce less than one monolayer of surfactant on the finished product, while the 0.1% concentration produced about 7 monolayers. The surfactant was applied to the mold using a Crown sprayer (Crown Industrial Products, Hebron, Ill.; Catalog #8011), which produces a sufficiently fine spray of droplets to uniformly coat the mold. The mold was sprayed before each part was made.

[4] = system: BSA protein; experiment: Coating stability in the presence of excess protein, colloidal gold
Description: The following procedures were employed in this example. 24-well polystyrene plates were coated as described in Materials and Methods using 25 μl aliquots of 0.10% (w/v) sorbitol mono-oleate in isopropanol. Coverage of the sorbitol mono-oleate was calculated at 10 μg/cm^2. Each well of the plates was exposed to 1.0 ml of BSA protein (Pierce) at 2 mg/ml in PBS buffer (pH=7.4). The plates were incubated on a rocker table for 30 minutes at room temperature, the wells were emptied, and the protein exposure was repeated a total of six times. The plates were then rinsed 3 times with dI H2O and stained with the colloidal gold stain overnight. Plates were then rinsed with dI H2O, dried, and the absorbance of each well was measured at 550 nm on the Cambridge Technologies plate reader.

[5] = system: IgG (Horse Standard, Pierce); experiment: Coating durability using protein solution washes on four polymers, colloidal Au; settings: after six IgG solution exposures
Description: The procedures used were as follows. Injection molded assay plates (96-well format) were made from polystyrene, (STYRON Dow 685D), polypropylene (Exxon 9374), polymethyl methacrylate (ATO HAAS), and KYNAR FLEX 2800 PVDF copolymer (ATO HAAS). Each well was aliquoted 0.10 ml of IgG (Horse Standard, Pierce) at 10 μg/ml in 0.01 M PBS buffer (pH=7.4) and placed on a rocker table for 30 minutes at 23° C. The protein solution was then emptied from the wells and a fresh protein solution was aliquoted to each well and the entire procedure repeated a total of six times. The plates were then rinsed three times with dI H2O (0.3 ml/well). Colloidal Au stain was added to each well (0.3 ml/well) and the plates were placed on a rocker table overnight. Plates were then rinsed 3 times with dI H2O, allowed to dry, and absorbance at 550 nm was measured using the Cambridge Technologies Plate Reader.

Row | Compound | LD50 ([1]; in vivo) [grams/Kg] | LD50 [1] [grams/Kg] | protein binding to coated PVDF membrane [2] | protein binding of in-mold coated part ([3]; concentrations above 0.1%, ranging up to 2%) | protein binding of in-mold coated part ([3]; mold sprayed with 0.01% (w/v) solution in isopropanol) | protein binding of in-mold coated part ([3]; mold sprayed with 0.1% (w/v) solution in isopropanol) | Absorbance at 550 nm ([4]; 1 exposure to BSA 2 mg/ml, 30 min total, coated polystyrene) | Absorbance at 550 nm ([4]; 2 exposures, 60 min total) | Absorbance at 550 nm ([4]; 3 exposures, 90 min total) | Absorbance at 550 nm ([4]; 4 exposures, 120 min total) | Absorbance at 550 nm ([4]; 5 exposures, 150 min total) | Absorbance at 550 nm ([4]; 6 exposures, 180 min total) | Absorbance (550 nm) Polypropylene [5] | Absorbance (550 nm) Polystyrene [5]
1 | CCCCCCCCCCCCOCCOCCOCCOCCO [PEO(4) LAURYL ETHER] | >5 | – | – | – | – | – | – | – | – | – | – | – | – | –
2 | SORBITOL MONO-OLEATE | – | >39 | substantially identical to that of the uncoated PVDF | found to work successfully | pooling and missed areas were seen which bound protein | essentially no protein binding | 0.0 | 0.0 | 0.0 | 0.0 | 0.0 | 0.0 | 0.00 | 0.00
